System: viral neuraminidase
Type: biochemical, influenza virus
Conditions: pH 5.5

Compound	enzymatic cleavage of the substrate and release of odorant (decrease of substrate signal, appearance of cleavage product signals)
CC(=O)NC1C(O)CC(OCC2(C)CC2CC2CC3CC3(C)C2(C)C)(C(=O)O)OC1CC(O)CO [javanol, Sodium ([(1R,2S)-1-methyl-2-[[(1R,3S,5S)-1,2,2-trimethyl-3-bicyclo[3.1.0]hexanyl]methyl]cyclopropyl]methyl-5-acetamido-3,5-dideoxy-α-D-glycero-D-galacto-2-nonulopyranoside)onate]	substrate is still present
Sodium (4-(4-hydroxy-3-methoxyphenyl)butan-2-one-5-acetamido-3,5-dideoxy-α-D-glycero-D-galacto-2-nonulopyranoside)onate [zingerone]	significant loss of peak at 508.3 amu
